We go through 11 molecules from ChEMBL document CHEMBL1148320, “Characterization of a ligand-receptor binding event using receptor-dependent four-dimensional quantitative structure-activity relationship analysis” (J Med Chem, 2004).

pKi: −log10 of the molar value.

The target of the assay is glycogen phosphorylase b, muscle (Oryctolagus cuniculus) (UniProt P00489).
glycogen phosphorylase b, muscle (Oryctolagus cuniculus), sequence (P00489 whole entry, looked up): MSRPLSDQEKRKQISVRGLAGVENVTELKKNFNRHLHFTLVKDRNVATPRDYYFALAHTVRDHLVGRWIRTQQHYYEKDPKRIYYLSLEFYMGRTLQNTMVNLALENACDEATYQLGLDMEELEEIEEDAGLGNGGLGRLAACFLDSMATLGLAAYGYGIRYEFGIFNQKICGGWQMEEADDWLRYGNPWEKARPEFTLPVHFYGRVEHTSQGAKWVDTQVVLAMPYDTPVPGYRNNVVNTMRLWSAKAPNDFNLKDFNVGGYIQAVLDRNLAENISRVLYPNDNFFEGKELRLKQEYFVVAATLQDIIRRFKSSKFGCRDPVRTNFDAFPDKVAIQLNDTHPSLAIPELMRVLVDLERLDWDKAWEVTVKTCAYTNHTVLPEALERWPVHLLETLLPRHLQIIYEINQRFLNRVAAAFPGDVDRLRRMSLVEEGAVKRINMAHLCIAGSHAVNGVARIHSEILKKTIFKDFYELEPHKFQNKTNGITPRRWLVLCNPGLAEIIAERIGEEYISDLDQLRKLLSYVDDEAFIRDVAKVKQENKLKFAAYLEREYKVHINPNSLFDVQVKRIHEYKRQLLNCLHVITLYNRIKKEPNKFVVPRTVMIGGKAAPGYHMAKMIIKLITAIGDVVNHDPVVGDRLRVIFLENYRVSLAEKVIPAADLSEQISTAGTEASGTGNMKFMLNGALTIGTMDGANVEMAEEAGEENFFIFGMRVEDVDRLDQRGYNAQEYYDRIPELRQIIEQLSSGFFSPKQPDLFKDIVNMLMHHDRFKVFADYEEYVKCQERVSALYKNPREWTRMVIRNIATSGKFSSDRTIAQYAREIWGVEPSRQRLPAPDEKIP
Usually pKi stands for the negative decadic logarithm of the Ki, by convention in mol/L. Turning to `NC(=O)CSC1O[C@H](CO)[C@@H](O)[C@H](O)[C@H]1O` (single isomer, unassigned), the pKi is 1.68.
To `OC[C@H]1S[C@H](O)[C@H](O)[C@@H](O)[C@@H]1O` belongs 2.70; to `CNNC(=O)C1O[C@H](CO)[C@@H](O)[C@H](O)[C@H]1O` (single isomer, unassigned), 2.74.
As for `CCC(=O)NC1O[C@H](CO)[C@@H](O)[C@H](O)[C@H]1O` (single isomer, unassigned), the pKi is 4.41.
As to `O=C(CCl)NC1O[C@H](CO)[C@@H](O)[C@H](O)[C@H]1O` (single isomer, unassigned), the pKi is 4.35.
In the case of `O=C(CSC1O[C@H](CO)[C@@H](O)[C@H](O)[C@H]1O)Nc1ccccc1` (single isomer, unassigned), the pKi was 2.44.
To `OC[C@H]1O[C@@](O)(CO)[C@H](O)[C@@H](O)[C@@H]1O` belongs 1.80.
`CCCC(=O)NC1O[C@H](CO)[C@@H](O)[C@H](O)[C@H]1O` (single isomer, unassigned) had a pKi of 4.03.
Regarding `CC(=O)NCC(=O)NC1O[C@H](CO)[C@@H](O)[C@H](O)[C@H]1O` (single isomer, unassigned), the negative logarithm of the Ki (pKi) was 3.00.
`NC(=O)NC1O[C@H](CO)[C@@H](O)[C@H](O)[C@H]1O` (single isomer, unassigned) gave a pKi of 3.85.
To `O=C(CSC1O[C@H](CO)[C@@H](O)[C@H](O)[C@H]1O)Nc1ccc(F)cc1F` (single isomer, unassigned) belongs 1.72.
